How the values were obtained:
[1] = Degradation of acetylsalicylic acid by moisture; type: physicochemical; settings: found in the course of the investigation
Source text: Subsequent acetylsalicylic acid sublimation occurs on the surface of ACE inhibitor tablets thus inducing its chemical degradation. A partially hydrolysed polyvinyl alcohol coating film (Opadry AMB™, Colorcon) has been found useful for protecting both acetylsalicylic acid and the ACE inhibitor tablets because of its moisture barrier properties. HMG-CoA reductase inhibitor tablets in the present invention may be coated with a coloured film, such as a hydroxypropylmethyl cellulose comprising film (Opadry Orange™, Colorcon) to hide darkened appearance. Opadry AMB coatings also may comprise one or more than one pigment.

[2] = general statement, no test described; cited from earlier work

## CC(=O)Oc1ccccc1C(=O)O [acetylsalicylic acid]
[1]
  Degradation due to moisture: degrades to salicylic acid due to moisture

## NCCCC[C@H](N[C@@H](CCc1ccccc1)C(=O)O)C(=O)N1CCC[C@H]1C(=O)O [lisinopril, 1-[N^2-[(S)-1-carboxy-3-phenylpropyl]-L-lysyl]-L-proline]
[2]
  Solubility in water: one of the most soluble in water

## CCC[C@H](N[C@@H](C)C(=O)N1[C@H](C(=O)O)C[C@@H]2CCCC[C@@H]21)C(=O)OCC [perindopril, 1-ethylic ester of (2S,3aS,7aS)-1-[(S)-N-[(S)-1-carboxybutyl]alanyl]hexahydro-2-indolinecarboxylic acid]
[2]
  Solubility in water: freely soluble in water

From patent publication US8753680B2, “Capsule for the prevention of cardiovascular diseases” (Ferrer Internacional S.A., priority 2008, dated 2014)
